The values that follow come from article PMC8546428, “Convergent olfactory trace amine-associated receptors detect biogenic polyamines with distinct motifs via a conserved binding site” (The Journal of Biological Chemistry, 2021).

The structures appear in SMILES notation.

As a reminder, the EC50 is the concentration needed to bring the measured effect to its halfway point.

The target in one assay is T1, mTAAR9 W7.40Y (Mus musculus, UniProt Q5QD04, W298Y).
T1 construct: expressed in transfected cells; host or cells: Hana3A (HEK293-derived)
The experiment in a line: CRE-luciferase reporter assay, mTAAR9 mutant in Hana3A. Format: cell-based. The following applies: read-out: EC50 (mean ± S.D., n = 3). On the technique in general: Reporter assays use an easily measured gene product as a stand-in for the process of interest.

In another assay the test system is sTAAR365 Y6.51A. The experiment in a line: cAMP TR-FRET assay, sTAAR365 mutant in HEK293T. Format: cell-based, sea lamprey. The conditions noted are these: cAMP production. An excerpt:
All mutants were verified by DNA sequencing.
For orientation: In TR-FRET formats the signal depends on donor and acceptor labels being close together.

The target in a further assay is T2, WT mTAAR9 (Mus musculus, UniProt Q5QD04).
T2 construct: Rho-tag (first 20 amino acids of bovine rhodopsin) (N); expressed in transfected cells; host or cells: Hana3A (HEK293-derived)
T2 sequence (Q5QD04 1-348): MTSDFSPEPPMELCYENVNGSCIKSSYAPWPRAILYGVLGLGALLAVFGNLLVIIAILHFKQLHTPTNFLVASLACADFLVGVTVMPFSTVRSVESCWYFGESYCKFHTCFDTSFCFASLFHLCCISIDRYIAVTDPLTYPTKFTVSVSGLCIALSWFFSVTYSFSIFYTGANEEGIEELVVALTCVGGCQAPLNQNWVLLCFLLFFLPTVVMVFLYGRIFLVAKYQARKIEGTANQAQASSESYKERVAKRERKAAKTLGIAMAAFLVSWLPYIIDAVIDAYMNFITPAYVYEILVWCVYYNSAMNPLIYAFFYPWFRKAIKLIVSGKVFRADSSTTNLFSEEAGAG
Kind of assay: CRE-luciferase reporter assay, wild-type mTAAR9 in Hana3A. The format is cell-based. The following applies: mouse TAAR9, ligand 1 mM, Fig. 1B. On the procedure: (§1) Mammalian TAAR9 plasmids were transfected into Hana3A cells along with a cAMP-dependent luciferase reporter plasmid (CRE-Luc). Transfected cells were incubated with tested ligands, and luciferase activity was quantified with a […] substrate as a reporter for Golf-mediated TAAR activation. Luciferase activity was indicated by the luminescence value and normalized as a fold-increase over the response to the vehicle stimuli (mean ± S.D., n = 3). […] B, Hana3A cells expressing mouse, rat, human, cat, hamster, and rabbit TAAR9 were incubated with either vehicle or tested ligands (1 mM) and assayed for reporter activity. C, concentration-dependent luciferase activity in Hana3A cells expressing mouse, rat, and cat TAAR9 receptors stimulated with cadaverine, spermidine, and spermine.
(§2) The firefly luciferase and renilla luciferase activity was measured with a BioTek microplate reader following manufacturer’s instructions.

The test system of the next assay is Cat TAAR9. The following applies: cat TAAR9, ligand 1 mM, Fig. 1B. On the procedure:
(§3) We examined the response of TAAR9s from rat, human, hamster, and rabbit to the stimulation of 1 mM amines using a well-established cAMP response element (CRE)-driven luciferase reporter assay based on Golf-mediated cAMP signal transduction ([5], [24]). In addition to the four mTAAR9 ligands, we included putrescine, which is also a polyamine and precursor of spermine/spermidine biosynthesis.
as §1, §2

A further assay addresses hamster TAAR9 (Mesocricetus auratus, UniProt A0A1U7R5X1). The conditions noted are these: hamster TAAR9, ligand 1 mM, Fig. 1B. On the procedure: as §3, §1, §2
The next assay has as its target human TAAR9 (Homo sapiens, UniProt Q96RI9). The conditions noted are these: human TAAR9, ligand 1 mM, Fig. 1B. As to the method: as §3, §1, §2
Another assay has as its target rabbit TAAR9 (Oryctolagus cuniculus, UniProt G1SUU9). The conditions noted are these: rabbit TAAR9, ligand 1 mM, Fig. 1B. As to the method: as §3, §1, §2
A further assay deals with T3, sTAAR365 Y6.51L (Petromyzon marinus, UniProt A0A678XMK4, Y272L).
T3 sequence (A0A678XMK4 1-365 Y272L): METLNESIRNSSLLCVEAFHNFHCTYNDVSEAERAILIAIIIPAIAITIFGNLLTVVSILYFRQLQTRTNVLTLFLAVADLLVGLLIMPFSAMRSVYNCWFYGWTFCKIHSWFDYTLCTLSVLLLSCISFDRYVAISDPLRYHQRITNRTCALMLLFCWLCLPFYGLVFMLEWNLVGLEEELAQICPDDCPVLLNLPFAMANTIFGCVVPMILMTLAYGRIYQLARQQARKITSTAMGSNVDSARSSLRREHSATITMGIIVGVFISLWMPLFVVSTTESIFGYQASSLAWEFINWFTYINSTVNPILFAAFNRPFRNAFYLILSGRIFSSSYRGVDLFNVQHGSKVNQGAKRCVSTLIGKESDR
The conditions noted are these: HEK293T, cAMP production.

Sequence of human TAAR9 (Q96RI9 whole entry): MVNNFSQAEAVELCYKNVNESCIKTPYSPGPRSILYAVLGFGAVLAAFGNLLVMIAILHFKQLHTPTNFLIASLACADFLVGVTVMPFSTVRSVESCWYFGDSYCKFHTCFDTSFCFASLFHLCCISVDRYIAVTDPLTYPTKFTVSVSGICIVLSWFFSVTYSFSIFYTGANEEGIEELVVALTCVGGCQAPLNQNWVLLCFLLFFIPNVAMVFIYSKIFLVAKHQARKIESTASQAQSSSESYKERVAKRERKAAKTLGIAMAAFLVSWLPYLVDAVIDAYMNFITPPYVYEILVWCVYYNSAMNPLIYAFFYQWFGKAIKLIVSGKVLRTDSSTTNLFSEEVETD
Sequence of hamster TAAR9 (A0A1U7R5X1 1-348): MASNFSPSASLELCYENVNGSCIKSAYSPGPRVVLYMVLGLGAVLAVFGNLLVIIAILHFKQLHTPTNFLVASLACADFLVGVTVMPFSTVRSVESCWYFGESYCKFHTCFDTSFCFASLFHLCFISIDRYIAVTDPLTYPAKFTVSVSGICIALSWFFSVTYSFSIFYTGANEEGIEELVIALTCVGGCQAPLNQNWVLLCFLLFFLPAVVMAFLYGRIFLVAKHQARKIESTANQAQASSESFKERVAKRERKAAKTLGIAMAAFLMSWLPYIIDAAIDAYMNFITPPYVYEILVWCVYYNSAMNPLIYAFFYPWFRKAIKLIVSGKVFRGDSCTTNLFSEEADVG
T1 sequence (Q5QD04 whole entry W298Y): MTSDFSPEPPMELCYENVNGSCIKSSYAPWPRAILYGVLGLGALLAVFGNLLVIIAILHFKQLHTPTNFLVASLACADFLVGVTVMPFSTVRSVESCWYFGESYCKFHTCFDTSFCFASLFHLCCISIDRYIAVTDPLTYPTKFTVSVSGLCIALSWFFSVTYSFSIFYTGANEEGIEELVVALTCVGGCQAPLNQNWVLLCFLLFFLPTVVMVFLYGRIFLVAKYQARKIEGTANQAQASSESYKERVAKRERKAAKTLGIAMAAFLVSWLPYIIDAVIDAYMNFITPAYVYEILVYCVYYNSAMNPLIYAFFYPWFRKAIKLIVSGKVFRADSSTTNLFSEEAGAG
Sequence of rabbit TAAR9 (G1SUU9 1-348): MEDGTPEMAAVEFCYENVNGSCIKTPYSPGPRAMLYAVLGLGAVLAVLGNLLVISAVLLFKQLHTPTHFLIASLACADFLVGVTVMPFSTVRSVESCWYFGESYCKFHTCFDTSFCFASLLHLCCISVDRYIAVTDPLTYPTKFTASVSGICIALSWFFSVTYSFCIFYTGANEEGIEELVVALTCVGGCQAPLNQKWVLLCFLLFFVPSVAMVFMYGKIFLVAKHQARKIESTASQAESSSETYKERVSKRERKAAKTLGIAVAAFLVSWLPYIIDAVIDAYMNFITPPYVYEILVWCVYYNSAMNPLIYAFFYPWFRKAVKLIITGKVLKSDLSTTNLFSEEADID

On to `NCCCCCN` [cadaverine], for which the EC50 on mTAAR9 W7.40Y stood at 28 ± 8 µM.
Turning to `NCCCCN` [putrescine], the “EC50 (mean ± S.D., n = 3)” value in the assay with sTAAR365 Y6.51A and at sTAAR365 Y6.51L was “loss” throughout. Moreover, the “reporter activity (activation of TAAR9)” value on WT mTAAR9, in the assay on Cat TAAR9, at hamster TAAR9, at human TAAR9 and on rabbit TAAR9 was “not activated” throughout.
